In US20100173873A1, “TREATMENT OF METASTASIZED TUMORS” (Novartis Vaccines and Diagnostics, Inc., priority 2005, published 2010):
Values joined by “and” are separate entries in the source; they are usually repeats but may differ in a detail not shown here. Equal values may be shown once.

Assays:
[1] = target: PI-3K; assay: In vitro kinase assay, PI-3K; type: biochemical; conditions: RTK table
[2] = target: Raf; assay: In vitro kinase assay, Raf; type: biochemical; conditions: RTK table
[3] = test system: RS4;11 tumors; assay: Subcutaneous RS4;11 xenograft model; type: in vivo, SCID-NOD mice; conditions: RS4;11 s.c., 10-150 mg/kg/d p.o.
Method: . Animals received sterile rodent chow and water ad libitum and were housed in sterile filter-top cages with 12 hour light/dark cycles. All experiments were under the guidelines of the Association for Assessment and Accreditation of Laboratory Animal Care International.
Cells (5×10^6 cells/mouse) were reconstituted with 50% Matrigel (Becton Dickinson) and implanted s.c. into the right flank of SCID-NOD mice. Treatments were initiated when tumors were 200-1000 mm^3, as outlined in specific study designs. Mice were randomly assigned into cohorts (typically 10 mice/group for efficacy studies and 3-5 mice/group for pharmacodynamic (PD) studies). Compound 1 was administered as a solution via oral gavage. […] . […] Response rates were defined as complete responses CR (no palpable tumor) or partial responses PR (50-99% shrinkage) compared to tumor volume at treatment initiation.

[4] = test system: MV4;11 cells disseminated to bone marrow; assay: Intravenous MV4;11 bone marrow engraftment model; type: in vivo, SCID-NOD mice
Method: For processing of bone marrow (BM) cells from the mouse MV4;11 engraftment model, femurs were purged with cold saline and red blood cells lysed with FACS lysis buffer (Becton Dickinson). Percent engraftment of human leukemic cells in mouse BM was determined by staining with anti-human HLA-A,B,C-FITC (vs. isotype-matched antibody-FITC control) (BD Pharmingen).
[…]. […] Mice were monitored daily and were euthanized when moribund or early signs of loss of hind limb motility. Increased life span (ILS) of treated mice was calculated as a percent increase in median survival time (MST) vs. vehicle treated control mice.
[…]. In this model, MV4;11 cells disseminate to the bone marrow (BM), pathologically mimicking a disease pattern similar to human leukemia. […]. Histological analyses and flow cytometry were used to quantify the % engraftment of MV4;11 cells in BM. In flow cytometric analyses, human MV4;11 cells were identified in mouse BM with an anti-human HLA-A,B,C antibody which binds to an epitope on human MHCI. In vehicle-treated mice, approximately 2-19% of total isolated BM cells consisted of engrafted MV4;11 cells (day 51,). This was also corroborated by immunohistochemistry with an antibody to human mitochondria which stains MV4;11 cells identifying the human cells in the mouse BM matrix. […].

[5] = test system: 4T1 murine breast tumor; assay: 4T1 murine breast tumor model (primary tumor, liver and lung metastases); type: in vivo, BALB/c mice; conditions: for Liver # of Metastases Mean ± SD / Lung # of Metastases Mean ± SD: after 17 days of dosing
[6] = test system: pERK in MV4;11 cells; assay: pERK in MV4;11 cells (flow cytometry, Western blot); conditions: Homo sapiens, MV4-11, 3 h, read-out: Inhibition of pERK

CN1CCN(c2ccc3nc(-c4c(N)c5c(F)cccc5[nH]c4=O)[nH]c3c2)CC1 [Compound 1, 4-Amino-5-fluoro-3-[6-(4-methylpiperazin-1-yl)-1H-benzimidazol-2-yl]quinolin-2(1H)-one]
IC50 [1]: > 10 µM
IC50 [2]: > 10 µM
Tumor regressions [3]: no regressions were observed
Survival (Kaplan-Meier, FIG. 6) ([4]; 20 mg/kg daily or 7 days on/7 days off): prolongs survival
Median survival time (MST) ([4]; 20 mg/kg p.o. 7 days on/7 days off, 5 cycles): 118 days
Increased life span (ILS) ([4]; 20 mg/kg p.o. 7 days on/7 days off, 5 cycles, vs. vehicle): 131%
Long-term survivors (MST >160 days) ([4]; 20 mg/kg p.o. daily): 4 mice
Median survival time (MST) ([4]; 20 mg/kg p.o. daily, day 23-100): 134 days
Tumor cells in BM of surviving mice (anti-human mitochondria IHC) ([4]; day 167): no evidence of tumor cells
Mean Tumor Volume day 18 ([5]; 10 mg/kg p.o. once daily): 1798 mm^3
Treated/Control day 18 ([5]; 10 mg/kg p.o. once daily): 0.80
Max % Inhibition (study day), primary tumor growth ([5]; 10 mg/kg p.o. once daily, d 11): 32% and 32 (d 11) %
Liver # of Metastases Mean ± SD ([5]; 10 mg/kg): 22 ± 32
Lung # of Metastases Mean ± SD ([5]; 10 mg/kg): 36 ± 32
Mean Tumor Volume day 18 ([5]; 30 mg/kg p.o. once daily): 1246 mm^3
Treated/Control day 18 ([5]; 30 mg/kg p.o. once daily): 0.55
Max % Inhibition (study day), primary tumor growth ([5]; 30 mg/kg p.o. once daily, d 18): 45% and 45 (d 18) %
Liver # of Metastases Mean ± SD ([5]; 30 mg/kg): 3 ± 4
Lung # of Metastases Mean ± SD ([5]; 30 mg/kg): 26 ± 26
Mean Tumor Volume day 18 ([5]; 60 mg/kg p.o. once daily): 1248 mm^3
Treated/Control day 18 ([5]; 60 mg/kg p.o. once daily): 0.56
Max % Inhibition (study day), primary tumor growth ([5]; 60 mg/kg p.o. once daily, d 11): 50% and 50 (d 11) %
Liver # of Metastases Mean ± SD ([5]; 60 mg/kg): 1 ± 1
Lung # of Metastases Mean ± SD ([5]; 60 mg/kg): 24 ± 11
Mean Tumor Volume day 18 ([5]; 100 mg/kg p.o. once daily): 624 mm^3
Treated/Control day 18 ([5]; 100 mg/kg p.o. once daily): 0.28
Max % Inhibition (study day), primary tumor growth ([5]; 100 mg/kg p.o. once daily, d 14): 74% and 74 (d 14) %
Liver # of Metastases Mean ± SD ([5]; 100 mg/kg): 4 ± 13
Lung # of Metastases Mean ± SD ([5]; 100 mg/kg): 24 ± 30
Mean Tumor Volume day 18 ([5]; 150 mg/kg p.o. once daily): 402 mm^3
Treated/Control day 18 ([5]; 150 mg/kg p.o. once daily): 0.18
Max % Inhibition (study day), primary tumor growth ([5]; 150 mg/kg p.o. once daily, d 18): 82% and 82 (d 18) %
Liver # of Metastases Mean ± SD ([5]; 150 mg/kg): 0 ± 0
Lung # of Metastases Mean ± SD ([5]; 150 mg/kg): 2 ± 3
Reduction of number of liver tumor nodules versus controls ([5]; 30, 60 and 100 mg/kg treatments): ≥ 77%
inhibition at 0.1 µM [6]: > 50%
